This is an account of results in patent US10005776B2, “Compounds as NIK inhibitors” (Janssen Pharmaceutica NV, priority 2014, dated 2018).

Usually EC50 stands for the concentration at which the effect is half-maximal. Usually IC50 stands for the concentration needed to halve the response being measured.

Experiment [1] concerns LP-1 cells. Kind of experiment: Antiproliferative activity on LP-1 cells (CellTiter-Glo). The settings on record: 72 hr treatment, averaged values. It counts as cell-based, human. Here is the method: (§1) Determination of Antiproliferative Activity on LP-1, L-363 and JJN-3 Cells
(§2) All compounds tested were dissolved in DMSO and further dilutions were made in culture medium. Final DMSO concentration was 0.3% (v/v) in cell proliferation assays. Viability was assessed using CellTiter-Glo cell viability assay kit (Promega). The human LP-1, L-363 and JJN-3 cells (DSMZ) were cultured in RPMI 1640 medium supplemented with 2 mM L-glutamine, and 10% fetal calf serum (PAA). Cells were routinely kept as suspension cells at 37° C. in a humidified 5% CO2 atmosphere. Cells were passaged at a seeding density of 0.2×10^6/ml twice a week. Cells were seeded in black tissue culture treated 96-well plates (Perkin Elmer). Densities used for plating ranged from 2,000 to 6,000 cells per well in a total volume of 75 μl medium. After twenty four hours, drugs and/or solvents were added (25 μl) to a final volume of 100 μl. Following 72 hr of treatment plates were removed from the incubator and allowed to equilibrate to room temperature for approx 10 min. 100 μl CellTiter-Glo reagent was added to each well that was then covered (Perkin Elmer Topseal) and shaken on plate shaker for 10 min. Luminescence was measured on a HTS Topcount (Perkin Elmer). Within an experiment, the results for each treatment were the mean of 2 replicate wells. For initial screening purposes, compounds were tested using a 9 point dilution curve (serial 1:3 dilutions). For each experiment, controls (containing no drug) and a blank incubation (containing cells read at the time of compound addition) were run in parallel. The blank value was subtracted from all control and sample values. For each sample, the mean value for cell growth (in relative light units) was expressed as a percentage of the mean value for cell growth of the control.
Background: In ATP-based viability assays light output follows the ATP content of the culture.

The subject of experiment [2] is JJN-3 cells. Kind of experiment: Antiproliferative activity on JJN-3 cells (CellTiter-Glo). The note with it: 72 hr treatment, averaged values. It counts as cell-based, human. Here is the method: as §1, §2
The test system of experiment [3] is L-363 cells. Description: Antiproliferative activity on L-363 cells (CellTiter-Glo). The experiment is classed as cell-based, human. The settings on record: 72 hr treatment, averaged values. Here is the method: as §1, §2
The target of experiment [4] is Recombinant Human NF-kappaB-Inducing Kinase (NIK/MAP3K14) (Homo sapiens, UniProt Q99558). Kind of experiment: Inhibition of auto-phosphorylation of recombinant human NIK/MAP3K14 (AlphaScreen). It counts as biochemical. The settings on record: 25 microM ATP, 0.2 nM GST-tagged NIK/MAP3K14, 1 h at 25° C.; averaged over all measurements on all batches; read-out: Alpha-Screen IC50. Here is the method:
Inhibition of Auto-Phosphorylation of Recombinant Human NF-kappaB-Inducing Kinase (NIK/MAP3K14) Activity (AlphaScreen®)
NIK/MAP3K14 auto-phosphorylation activity was measured using the AlphaScreen® (αscreen) format (Perkin Elmer). All compounds tested were dissolved in dimethyl sulfoxide (DMSO) and further dilutions were made in assay buffer. Final DMSO concentration was 1% (v/v) in assays. Assay buffer was 50 mM Tris pH 7.5 containing 1 mM EGTA (ethylene glycol tetraacetic acid), 1 mM DTT (dithiothreitol), 0.1 mM Na3VO4, 5 mM MgCl2, 0.01% Tween® 20. Assays were carried out in 384 well Alphaplates (Perkin Elmer). Incubations consisted of compound, 25 microM Adenosine-5′-triphosphate (ATP), and 0.2 nM NIK/MAP3K14. Incubations were initiated by addition of GST-tagged NIK/MAP3K14 enzyme, carried out for 1 h at 25° C. and terminated by addition of stop buffer containing anti-phospho-IKK Ser176/180 antibody. Protein A Acceptor and Glutathione-Donor beads were added before reading using an EnVision® Multilabel Plate Reader (Perkin Elmer). Signal obtained in the wells containing blank samples was subtracted from all other wells and IC50's were determined by fitting a sigmoidal curve to % inhibition of control versus Log10 compound concentration.

Recombinant Human NF-kappaB-Inducing Kinase (NIK/MAP3K14), sequence (Q99558 whole entry): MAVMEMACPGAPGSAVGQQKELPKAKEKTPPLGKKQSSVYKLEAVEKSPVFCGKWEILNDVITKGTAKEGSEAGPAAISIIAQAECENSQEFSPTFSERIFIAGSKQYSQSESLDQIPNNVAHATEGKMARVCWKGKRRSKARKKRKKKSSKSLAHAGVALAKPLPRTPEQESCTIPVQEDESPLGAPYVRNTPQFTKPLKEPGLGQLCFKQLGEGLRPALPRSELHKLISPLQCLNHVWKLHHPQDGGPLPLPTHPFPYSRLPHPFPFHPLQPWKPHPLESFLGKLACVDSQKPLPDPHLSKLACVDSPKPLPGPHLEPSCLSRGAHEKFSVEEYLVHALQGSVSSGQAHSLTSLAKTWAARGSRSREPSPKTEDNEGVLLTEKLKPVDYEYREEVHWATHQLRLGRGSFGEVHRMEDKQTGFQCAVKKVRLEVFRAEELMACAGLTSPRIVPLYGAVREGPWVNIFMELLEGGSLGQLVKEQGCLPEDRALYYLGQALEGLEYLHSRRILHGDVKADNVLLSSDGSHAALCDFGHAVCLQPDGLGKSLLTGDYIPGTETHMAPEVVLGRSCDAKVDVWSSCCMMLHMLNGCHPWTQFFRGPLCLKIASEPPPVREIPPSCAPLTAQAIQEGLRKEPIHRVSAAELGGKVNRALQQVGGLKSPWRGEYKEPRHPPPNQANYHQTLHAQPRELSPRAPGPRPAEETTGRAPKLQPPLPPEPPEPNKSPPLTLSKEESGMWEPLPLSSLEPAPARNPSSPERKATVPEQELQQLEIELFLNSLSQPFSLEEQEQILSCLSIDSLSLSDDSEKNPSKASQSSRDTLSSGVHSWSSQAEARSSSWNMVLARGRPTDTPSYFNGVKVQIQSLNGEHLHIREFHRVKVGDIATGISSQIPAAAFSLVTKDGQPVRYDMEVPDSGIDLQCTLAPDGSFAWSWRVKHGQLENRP

Regarding `CC(C)n1cc(-c2nc(N)ncc2OCCN2CCOCC2)c2cc(C#CC(C)(O)C3CC3)ncc21` (stereo not drawn) [Compound 4], the EC50 in experiment [1] (Homo sapiens, LP-1, 72 h) is 1190 nM; in experiment [2] (Homo sapiens, JJN-3, 72 h), 208 nM; in experiment [3] (Homo sapiens, L-363, 72 h), 152 nM. The IC50 in experiment [4] was determined as 150 nM.

On to `[2H]C([2H])([2H])C(O)(C#Cc1cc2c(-c3nc(N)ncc3F)cn(C3CCCN(CCC)C3)c2cn1)C([2H])([2H])[2H]` (stereo not drawn) [Compound 12], for which the EC50 was found to be 76 nM in experiment [1], 38 nM in experiment [2] and 42 nM in experiment [3]. The IC50 in experiment [4] came to 56 nM.

For `CC(C)N1CCC(n2cc(-c3nc(N)ncc3F)c3cc(C#CC(C)(O)C4CC4)ncc32)C1` (stereo not drawn) [Compound 3], the EC50 in experiment [1] (Homo sapiens, LP-1, 72 h) came to 147 nM; in experiment [2] (Homo sapiens, JJN-3, 72 h), 133 nM; in experiment [3] (Homo sapiens, L-363, 72 h), 56 nM. The IC50 in experiment [4] was 155 nM.

Regarding `CC(O)(C#Cc1cc2c(-c3nc(N)ncc3F)c[nH]c2cn1)c1nccs1` (single isomer, unassigned) [Compound 30], the EC50 in experiment [1] was 11600 nM; in experiment [2], 2080 nM; in experiment [3], 4760 nM. For the same compound, in experiment [4], the IC50 amounted to 20 nM.

For `CC(O)(C#Cc1cc2c(-c3nc(N)ncc3F)cn(C3CN(C4CC4)C3)c2cn1)c1nccs1` (single isomer, unassigned) [Compound 29], the EC50 in experiment [1] came to 3530 nM; in experiment [2], 1930 nM; in experiment [3], 3080 nM. In addition, the IC50 in experiment [4] came to 735 nM.

With `CC(O)(C#Cc1cc2c(-c3nc(N)ncc3F)cn(C3CN(C4CC4)C3)c2cn1)c1nccs1` (single isomer, unassigned) [Compound 28], the EC50 in experiment [1] (Homo sapiens, LP-1, 72 h) stood at 4260 nM; in experiment [2] it was 408 nM; in experiment [3], 402 nM. In experiment [4], the IC50 stood at 16 nM.
